According to patent publication US11504425B2, “Amphiphilic oligodeoxynucleotide conjugates as adjuvant enhancers” (WAYNE STATE UNIVERSITY, priority 2019, dated 2022):
“Also recorded” adds a separate entry of the source. Oligonucleotides are written 5' to 3', each unit as a sugar letter and its base; * is a phosphorothioate linkage, no mark a phosphodiester; rarer units and linkages stand in square brackets, end groups in braces. Plain capitals give the bases only. {Lipid} = lipid portion of the amphiphilic conjugate (lipid variable, as described in specification); d = 2'-deoxy (DNA)

What was measured:
[1] = system: TLR7-mediated NF-κB activation in Raw-Blue reporter cells; assay: Raw-Blue NF-κB/SEAP reporter stimulation with TLR7 ligands; format: cell-based, murine; conditions: for IMQ-induced NF-κB activation (SEAP) in the presence of the ODN: 2 μM IMQ + 1 μM ODN, FBS-supplemented medium
Procedure: (§1) HEK-Blue™-mTLR7, mTLR8, hTLR7, hTLR8, and RAW-Blue™ cells were purchased from InvivoGen and were used to evaluate bioactivities of lipo ODNs and TLR 7/8 ligands in vitro. All these cell lines were cultured with DMEM supplemented with 10% FBS, 1% P/S and 100 μg/mL Normocin at 37° C. with 5% CO2. […] After incubating for 24 h, SEAP levels were quantified by developing supernatants with QuantiBlue™ substrate for 1 h and reading absorption at 620 nm, following manufacturer's instructions.
Following subcutaneous injection, lipid-modified oligonucleotides efficiently accumulated in the draining lymph nodes by binding and trafficking with endogenous albumin protein (Liu et al., Nature 507, 519-522, 2014; Yu et al., Pharmaceutical Res. 35: 56, 2018). Inspired by that prior work, the current study was aimed to take advantage of lipid functionalization in other oligonucleotide-based TLR inhibitors to further expand the pool of lipo suppressive ODNs. The therapeutic efficacy of lipid-modified IRS 954 in suppressing TLR7-mediated immune activation and alleviating the severity of SLE was investigated. Imiquimod (IMQ; FIG. 1A) was first used to stimulate TLR7-mediated immune activation in Raw-Blue reporter cells. For the initial experiments, Raw Blue cells-a murine RAW 264.7 macrophage cell line which expresses secreted embryonic alkaline phosphatase (SEAP) under the control of an NF-κB and AP-1, were used. Raw Blue cells express many toll-like receptors, including TLR-7, TLR-8, and TLR-9. The immunosuppressive capability of unmodified or lipo IRS 954 was determined by quantifying the level of TLR7-induced NF-κB activation.

[2] = biological target: T1, human TLR8 (hTLR8) (Homo sapiens, UniProt Q9NR97); assay: HEK hTLR8 reporter cells NF-κB/SEAP; format: cell-based; conditions: 1 μg/ml or indicated concentrations TLR8-506 + 1 μM ODN, 24 h
T1 construct: host or cells: HEK-Blue-hTLR8 (HEK293)
T1 sequence (Q9NR97 27-1041): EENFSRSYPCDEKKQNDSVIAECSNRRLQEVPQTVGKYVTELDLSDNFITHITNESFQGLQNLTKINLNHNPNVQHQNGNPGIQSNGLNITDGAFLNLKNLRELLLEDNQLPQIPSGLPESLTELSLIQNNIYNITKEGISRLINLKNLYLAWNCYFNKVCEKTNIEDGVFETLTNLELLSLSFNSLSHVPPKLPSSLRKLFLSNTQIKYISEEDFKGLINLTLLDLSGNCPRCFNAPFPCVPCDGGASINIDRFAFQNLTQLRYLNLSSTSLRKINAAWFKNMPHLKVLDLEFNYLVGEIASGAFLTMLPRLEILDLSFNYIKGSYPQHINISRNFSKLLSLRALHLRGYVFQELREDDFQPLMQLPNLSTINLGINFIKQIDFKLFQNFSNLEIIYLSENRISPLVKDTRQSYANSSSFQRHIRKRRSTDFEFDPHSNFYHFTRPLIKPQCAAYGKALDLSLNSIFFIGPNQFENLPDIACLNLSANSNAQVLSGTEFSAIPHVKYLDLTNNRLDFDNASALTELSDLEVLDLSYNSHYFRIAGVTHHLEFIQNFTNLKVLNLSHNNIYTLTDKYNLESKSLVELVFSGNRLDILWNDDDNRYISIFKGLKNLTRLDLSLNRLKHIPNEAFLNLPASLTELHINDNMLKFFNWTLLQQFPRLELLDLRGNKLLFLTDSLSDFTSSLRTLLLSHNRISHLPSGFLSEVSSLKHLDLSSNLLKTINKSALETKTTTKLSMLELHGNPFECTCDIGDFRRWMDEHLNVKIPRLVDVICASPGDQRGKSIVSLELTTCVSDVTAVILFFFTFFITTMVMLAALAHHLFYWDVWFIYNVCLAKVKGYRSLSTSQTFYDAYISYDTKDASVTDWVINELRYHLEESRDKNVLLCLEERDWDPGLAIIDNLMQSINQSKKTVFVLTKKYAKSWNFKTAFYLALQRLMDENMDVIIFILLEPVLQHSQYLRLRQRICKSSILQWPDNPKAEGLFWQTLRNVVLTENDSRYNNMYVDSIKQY
Procedure: as §1
(§2) HEK293 cells transfected with human TLR7 or 8 were used. The cells were stimulated with IMQ in the presence of several inhibitory oligonucleotides reported in the literature. […] In contrast, all the unmodified ODNs maintained their inhibitory function, reducing the NF-κB secretion to basal levels (FIG. 8A). We then plotted the IMQ dose response curve in human TLR-7 transfected HEK293 cells.

[3] = biological target: T2, human TLR7 (hTLR7) (Homo sapiens, UniProt Q9NYK1); assay: HEK hTLR7 reporter cells NF-κB/SEAP; format: cell-based; conditions: 2 μM IMQ + 1 μM ODN, 24 h
T2 construct: host or cells: HEK-Blue-hTLR7 (HEK293)
T2 sequence (Q9NYK1 27-1049): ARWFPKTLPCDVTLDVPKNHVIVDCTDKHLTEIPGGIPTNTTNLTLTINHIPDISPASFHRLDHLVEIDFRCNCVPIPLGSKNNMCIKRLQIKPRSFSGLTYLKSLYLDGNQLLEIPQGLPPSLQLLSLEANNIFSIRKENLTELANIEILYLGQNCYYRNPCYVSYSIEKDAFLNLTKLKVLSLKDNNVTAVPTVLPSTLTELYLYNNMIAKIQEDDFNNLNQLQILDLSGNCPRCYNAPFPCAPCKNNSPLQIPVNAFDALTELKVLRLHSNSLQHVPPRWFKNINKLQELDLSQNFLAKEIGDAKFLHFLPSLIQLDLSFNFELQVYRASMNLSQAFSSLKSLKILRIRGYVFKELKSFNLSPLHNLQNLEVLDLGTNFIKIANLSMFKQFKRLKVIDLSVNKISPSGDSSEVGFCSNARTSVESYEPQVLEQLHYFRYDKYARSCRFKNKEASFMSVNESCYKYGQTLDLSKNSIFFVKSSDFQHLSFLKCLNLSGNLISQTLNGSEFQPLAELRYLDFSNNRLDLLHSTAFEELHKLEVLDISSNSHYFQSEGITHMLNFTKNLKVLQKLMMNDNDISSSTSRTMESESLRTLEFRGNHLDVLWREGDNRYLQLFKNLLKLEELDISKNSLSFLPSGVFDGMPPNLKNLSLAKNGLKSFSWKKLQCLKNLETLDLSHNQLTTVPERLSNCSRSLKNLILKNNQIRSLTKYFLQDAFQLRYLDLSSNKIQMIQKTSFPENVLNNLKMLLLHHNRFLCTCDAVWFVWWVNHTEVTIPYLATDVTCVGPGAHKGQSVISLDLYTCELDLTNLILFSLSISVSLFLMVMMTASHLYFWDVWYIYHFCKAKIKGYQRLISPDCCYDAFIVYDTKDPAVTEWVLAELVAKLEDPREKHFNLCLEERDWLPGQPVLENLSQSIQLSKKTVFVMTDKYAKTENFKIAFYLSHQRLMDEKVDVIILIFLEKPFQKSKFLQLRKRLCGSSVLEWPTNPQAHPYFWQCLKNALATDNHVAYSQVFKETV
Procedure: as §1, §2

[4] = biological target: T3, mouse TLR7 (mTLR7) (Mus musculus, UniProt P58681); assay: HEK mTLR7 reporter cells NF-κB/SEAP; format: cell-based; conditions: soluble ligand alone, 24 h
T3 construct: host or cells: HEK-Blue-mTLR7 (HEK293)
T3 sequence (P58681 27-1050): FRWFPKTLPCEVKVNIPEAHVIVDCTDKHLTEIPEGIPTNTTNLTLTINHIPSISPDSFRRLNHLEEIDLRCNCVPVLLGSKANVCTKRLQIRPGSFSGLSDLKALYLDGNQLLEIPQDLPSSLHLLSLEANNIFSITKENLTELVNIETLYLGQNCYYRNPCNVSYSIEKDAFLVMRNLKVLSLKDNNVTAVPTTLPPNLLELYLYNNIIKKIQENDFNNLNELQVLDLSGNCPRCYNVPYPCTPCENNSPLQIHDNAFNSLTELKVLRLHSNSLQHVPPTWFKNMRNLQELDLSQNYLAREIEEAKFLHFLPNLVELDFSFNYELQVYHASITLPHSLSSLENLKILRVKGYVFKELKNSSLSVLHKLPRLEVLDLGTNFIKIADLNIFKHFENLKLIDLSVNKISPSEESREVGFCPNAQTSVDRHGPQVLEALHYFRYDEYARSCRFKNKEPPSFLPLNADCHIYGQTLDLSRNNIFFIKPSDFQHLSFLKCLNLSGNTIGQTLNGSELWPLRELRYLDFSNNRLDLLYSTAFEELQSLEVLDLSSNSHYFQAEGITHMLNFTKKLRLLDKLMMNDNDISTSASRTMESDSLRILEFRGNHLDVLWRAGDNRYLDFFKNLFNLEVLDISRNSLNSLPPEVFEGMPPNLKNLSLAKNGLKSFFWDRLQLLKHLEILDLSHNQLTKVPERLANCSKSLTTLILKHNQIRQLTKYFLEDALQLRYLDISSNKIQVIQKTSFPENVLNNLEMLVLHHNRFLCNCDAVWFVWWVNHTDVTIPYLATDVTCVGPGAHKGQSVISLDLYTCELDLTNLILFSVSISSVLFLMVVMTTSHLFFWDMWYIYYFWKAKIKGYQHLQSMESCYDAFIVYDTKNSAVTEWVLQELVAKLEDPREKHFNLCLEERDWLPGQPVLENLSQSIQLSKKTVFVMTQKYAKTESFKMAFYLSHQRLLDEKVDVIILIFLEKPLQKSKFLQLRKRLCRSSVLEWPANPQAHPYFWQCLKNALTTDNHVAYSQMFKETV
Procedure: as §1
Raw Blue cells which respond to both murine TLR-7 and TLR-8 are also included to assess the overall modulatory effect. half-maximal effective concentration (EC50) and potency of several classic TLR7/8 ligands were evaluated in murine TLR7 and TLR8 reporter cells.

Row | Compound | IMQ-induced NF-κB activation (SEAP) in the presence of the ODN ([1]; 24 h) | TLR8-506 stimulation of hTLR8 cells in the presence of the ODN [2] | activity of the ODN alone in Raw Blue cells ([1]; without IMQ) | IMQ-mediated NF-κB stimulation in hTLR7 cells in the presence of the ODN [3] | NF-κB activation of Raw Blue cells by the ligand alone ([1]; ligand alone, 24 h) | mTLR7 activation by the ligand alone [4]
1 | 5′-TGCTCCTGGAGGGGTTGT-3′ (DNA dT*dG*dC*dT*dC*dC*dT*dG*dG*dA*dG*dG*dG*dG*dT*dT*dG*dT) [IRS 954] | no detectable NF-κB was observed | – | – | – | – | –
2 | 5′-L-TGCTCCTGGAGGGGTTGT-3′ (DNA NTGCTCCTGGAGGGGTTGT; 5' lipid modification; Lipid-modified synthetic oligonucleotide; (1)..(1) n=placeholder indicative of lipid portion of conjugate, as described in specification; lipid is variable, depending on embodiment(s)) [lipo IRS 954] | enhanced TLR7-mediated activation; also recorded: more than twofold increase in TLR-7-mediated activation | partially inhibited the TLR-8 signaling | no activity | markedly enhanced IMQ-mediated NF-κB stimulation | – | –
3 | lipo ODN 2087: lipid modified ODN 2087 (5′-TCCTGAGCTTGAAGT-3′) (DNA {Lipid}-dT*dC*dC*dT*dG*dA*dG*dC*dT*dT*dG*dA*dA*dG*dT) | – | partially inhibited the TLR-8 signaling | – | markedly enhanced IMQ-mediated NF-κB stimulation | – | –
4 | CC(C)Cn1cnc2c(N)nc3ccccc3c21 [IMQ, imiquimod] | – | – | – | – | resulted in secretion of NF-κB | activated mTLR-7 at different concentrations
